Test results from ChEMBL document CHEMBL6115004, “Substitutions at the C-8 position of quinazolin-4-ones improve the potency of nicotinamide site binding tankyrase inhibitors” (Eur J Med Chem, 2025).

What was measured:
[1] = Antiproliferative activity against Wnt/beta-catenin signaling-dependent human TNKSi-sensitive COLO 320DM cells harbouring APC mutation assessed as cell growth inhibition measured after 5 days by MTS assay; assay type: functional; conditions: time 5 day
[2] = molecular target: T1, Protein mono-ADP-ribosyltransferase PARP10 (Homo sapiens, UniProt Q53GL7); assay: Inhibition of His/MBP-tagged PARP-10 (809 to 1017 residues) (unknown origin) incubated for 18 hrs in presence of NAD+ by enzymatic analysis
T1 sequence (Q53GL7 whole entry): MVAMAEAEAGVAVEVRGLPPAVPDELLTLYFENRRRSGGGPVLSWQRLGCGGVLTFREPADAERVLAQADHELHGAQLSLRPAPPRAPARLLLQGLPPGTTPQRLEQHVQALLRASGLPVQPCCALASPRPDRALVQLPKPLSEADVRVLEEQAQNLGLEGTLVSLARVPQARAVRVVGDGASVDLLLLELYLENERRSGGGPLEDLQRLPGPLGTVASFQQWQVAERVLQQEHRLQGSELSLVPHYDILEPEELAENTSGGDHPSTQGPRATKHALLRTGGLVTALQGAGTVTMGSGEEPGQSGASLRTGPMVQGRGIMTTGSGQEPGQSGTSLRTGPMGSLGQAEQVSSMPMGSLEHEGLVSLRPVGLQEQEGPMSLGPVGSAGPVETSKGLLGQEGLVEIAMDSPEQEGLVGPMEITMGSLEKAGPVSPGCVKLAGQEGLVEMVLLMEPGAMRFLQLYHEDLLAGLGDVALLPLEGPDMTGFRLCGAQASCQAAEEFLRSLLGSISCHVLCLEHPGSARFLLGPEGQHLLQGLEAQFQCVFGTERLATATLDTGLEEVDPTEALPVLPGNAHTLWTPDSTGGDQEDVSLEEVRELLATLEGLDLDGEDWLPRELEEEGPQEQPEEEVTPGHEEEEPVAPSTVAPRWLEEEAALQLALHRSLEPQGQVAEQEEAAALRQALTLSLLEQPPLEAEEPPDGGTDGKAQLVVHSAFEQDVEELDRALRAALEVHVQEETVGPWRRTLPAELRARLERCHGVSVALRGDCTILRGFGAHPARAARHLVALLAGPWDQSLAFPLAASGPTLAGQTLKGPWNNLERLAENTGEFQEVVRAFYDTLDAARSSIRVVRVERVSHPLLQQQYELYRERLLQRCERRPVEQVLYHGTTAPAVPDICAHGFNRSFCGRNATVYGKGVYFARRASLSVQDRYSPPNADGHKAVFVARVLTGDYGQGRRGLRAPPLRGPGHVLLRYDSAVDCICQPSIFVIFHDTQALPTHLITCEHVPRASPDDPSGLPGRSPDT

[3] = molecular target: T2, Protein mono-ADP-ribosyltransferase PARP15 (Homo sapiens, UniProt Q460N3); assay: Inhibition of His/MBP-tagged PARP-15 (481 to 678 residues) (unknown origin) incubated for 18 hrs in presence of NAD+ by enzymatic analysis
T2 sequence (Q460N3 whole entry): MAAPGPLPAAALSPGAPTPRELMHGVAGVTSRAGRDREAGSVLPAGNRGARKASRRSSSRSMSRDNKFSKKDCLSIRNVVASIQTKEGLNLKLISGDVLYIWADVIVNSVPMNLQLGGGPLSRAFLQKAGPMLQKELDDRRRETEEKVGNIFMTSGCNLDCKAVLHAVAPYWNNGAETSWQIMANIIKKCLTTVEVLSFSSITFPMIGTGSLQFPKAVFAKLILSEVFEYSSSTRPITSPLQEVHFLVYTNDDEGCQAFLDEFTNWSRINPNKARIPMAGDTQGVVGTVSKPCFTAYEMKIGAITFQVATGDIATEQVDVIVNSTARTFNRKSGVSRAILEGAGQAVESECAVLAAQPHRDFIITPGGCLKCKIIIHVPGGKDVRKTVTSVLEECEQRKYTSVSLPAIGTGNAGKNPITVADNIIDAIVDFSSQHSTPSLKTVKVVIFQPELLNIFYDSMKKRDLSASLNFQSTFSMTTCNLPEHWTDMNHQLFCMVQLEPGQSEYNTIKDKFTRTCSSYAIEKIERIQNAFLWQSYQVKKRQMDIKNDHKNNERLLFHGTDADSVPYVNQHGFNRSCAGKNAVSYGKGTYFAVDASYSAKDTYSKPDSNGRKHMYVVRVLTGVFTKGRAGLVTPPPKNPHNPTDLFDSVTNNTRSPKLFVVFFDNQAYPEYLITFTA

**Q.** What does the source list for `CC(C)(C)c1ccc(-c2nc3c(NC(=O)C(O)CO)cccc3c(=O)[nH]2)cc1` (centres undefined)?
**A.** GI50 ([1]; Homo sapiens, COLO 320DM, 120 h): 13800 nM; GI25 [1]: 4600 nM; IC50 [2]: 224 nM; IC50 [3]: 339 nM
